# Measurements reported in patent US6949533B2, “6,7-Oxygenated steroids and uses related thereto” (Inflazyme Pharmaceuticals Ltd., priority 1996, dated 2005).
# Read-outs that look alike come from different tables or passages of the source.
# Tests used:
# [1] = system: rabbit platelets; assay: PAF-induced aggregation of rabbit platelets; format: cell-based; conditions: Oryctolagus cuniculus, Platelet, read-out: % Inhibition at 80 μM
# Source text: Within the present invention, it was discovered that the polyhydroxylated steroids as well as intermediates described in previous sections inhibited the aggregation of platelets caused by platelet activating factor (PAF). PAF is a local mediator of thrombosis and prevention of the formation of blood clots has direct implication in the treatment of thrombosis and associated cardiovascular diseases. The assay system used to evaluate the ability of compounds to inhibit the aggregation of platelets in response to exogenous stimuli is indicative of anti-thrombotic or thrombolytic activity.
# Platelets were isolated from rabbit blood and prepared at a density of 2.4×10^8 cells/ml in Tyrodes buffer (pH 7.2) containing Ca^2+. Platelets were incubated with each compound for 5 min at 37° C. prior to stimulation. Platelets were stimulated with 1 nM platelet activating factor (PAF; EC75) in the presence of each of the compounds and aggregation was monitored for 5 min. Compounds were solubilized in dimethylsulfoxide (DMSO) and aggregation was measured as a percentage of the response to 1 nM PAF obtained in the presence of the appropriate concentration of DMSO. The degree of inhibition caused by each sample was calculated using the control response in the presence of DMSO equal to 100%.
# [2] = system: passively sensitized rat mast cells (RBL-2H3); assay: antigen-induced release of hexosaminidase from RBL-2H3 cells; format: cell-based; conditions: for inhibition at 25 µM: Rattus norvegicus
# Procedure: (§1) The anti-allergic effects of various polyhydroxylated steroids of the present invention were evaluated by measuring their effect on antigen-induced secretion of hexosaminidase from a passively sensitized rat mast cell line (RBL-2H3) and a murine mast cell line (MC/9). The ability of agents to inhibit the release of mast cell granule contents, e.g., histamine and hexosaminidase, is indicative of anti-allergy and/or anti-asthma activity.
# (§2) Hexosaminidase is released from the mast cell granule along with histamine and other mediators during antigen challenge. RBL-2H3 and MC/9 cells were grown in culture and passively sensitized to dinitrophenol (DNP) using anti-human-DNP (IgE). Cells were incubated with each compound (25 μM) for 1 hour at 37° C. and then stimulated with 0.1 mg/ml DNP-HSA (antigen) for 15 min. Aliquots of the supernatant were removed and used to measure the amount of hexosaminidase released during challenge with the antigen. The amount of hexosaminidase present in the supernatant was determined calorimetrically by monitoring the enzymatic metabolism of p-nitrophenyl-N-acetyl-β-D-glucosaminide (p-NAG) over a period of 1 hour at 410 nm. The effect of each compound was determined as a percentage of the antigen-induced response (minus background release) obtained in the presence of DMSO alone, as set forth in Tables 2 and 3. These values were used to determine the degrees of inhibition of antigen-induced hexosaminidase release from the cells.
# [3] = system: guinea pig ileum; assay: antigen-induced contraction of ileum from sensitized guinea pigs; conditions: Cavia porcellus, read-out: Percentage Inhibition, 30 μM compound, n = 3-4
# Procedure: The ability of compounds to inhibit allergen-induced contraction of ileum from sensitized animals is indicative of antiallergic activity. Sensitized guinea pig ileum is particularly useful in measuring the immediate allergic response.
# The guinea pig ileum has been used to evaluate the ability of compounds to inhibit allergan-induced histamine and mediator release causing smooth muscle contraction. Guinea pigs were sensitized by an intraperitoneal injection of 100 mg ovalbumin and an intramuscular injection of 50 mg ovalbumin on day 0, followed by a second intramuscular injection of 50 mg ovalbumin on day 1. […] Segments of ileum were prepared and suspended, with muscle contractions being measured in the longitudinal plane, in Tyrode's buffer at 37° C. and aerated with 5% CO2 in O2. Tissues were suspended under a resting tension of 2 grams and isometric contractions were measured using force-displacement transducers coupled to a polygraph. Tissues were stimulated with 3 μM histamine 3 times to ensure reproducible contractions were obtained. Tissues were then incubated with each compound (30 μM) or 0.15% dimethylsulphoxide (DMSO) as a control, for 20 min, after which time the tissues were challenged with 100 μg/ml ovalbumin. The magnitude of the contraction induced by OA in the presence of each compound was expressed as a percentage of the contraction obtained to 3 μM histamine. The protective effects of the various compounds on OA-induced contraction of guinea pig ileum from sensitized animals are summarized in Table 4.
# [4] = system: isolated trachea; parameters: species or system guinea pig; conditions: compound 20 μM, study 1
# Procedure: The effects of a number of the compounds described herein on allergen-induced bronchoconstriction were evaluated for anti-asthma activity. The ability of a compound to inhibit allergen-induced decreases in lung function in sensitized guinea pigs in response to antigen-challenge is indicative of anti-asthma activity. In particular, the model system is useful in the evaluation of the potential effects of a compound in the treatment of the early asthmatic reaction (EAR) when severe bronchoconstriction occurs.
# Guinea pigs were exposed to a nebulized solution of 1% ovalbumin (OA) in saline for 15 min. […] Tracheal rings were prepared and bathed in Krebs-Henseleit solution at 37° C. and aerated with 5% CO2 in […]. Tissues were suspended under a resting tension of 2 g and isometric contractions were measured using force-displacement transducers coupled to a polygraph. Tissues were incubated with each compound or 0.1% dimethylsulfoxide (as a control) for 20 min, after which increasing concentrations of OA (0.001-100 μg/ml) were added to the tissue. After the final concentration of OA was added and the response was recorded, the tissues were stimulated with 100 μM methacholine which caused maximum contraction of the trachea. The magnitude of the contraction induced by OA in the presence of each compound was expressed as a percentage of the maximum contraction obtained using methacholine (100 μM).
# [5] = system: mouse mast cells (MC/9); assay: antigen-induced release of hexosaminidase from MC/9 cells; format: cell-based; conditions: for inhibition at 25 µM: Mus musculus, MC9, 25 μM compound, read-out: Percentage Inhibition (mean) MC/9 cells
# Procedure: as §1, §2
# [6] = system: sensitized guinea pigs; assay: allergen-induced changes in lung resistance and compliance in vivo; parameters: species or system guinea pig; conditions: 5 mg/kg/day for 4 days p.o.
# Procedure: Female Cam Hartley guinea pigs (350-400 g) are sensitized to ovalbumin by exposure of the guinea pigs to a nebulized solution of 1% ovalbumin in saline for 15 minutes. After 10-12 days, the animals are found to be acutely sensitized to the allergen (ovalbumin). Animals are treated by oral gavage, under light halothane anesthesia, with 300 μl polyethyleneglycol-200 (PEG) or 5 mg/Kg of test compound in 300 μl of PEG. Animals are treated once daily for 4 days with the final dose administered 2 hours prior to allergen challenge. Alternatively, compounds were delivered by inhalation, using a Hudson nebulizer driven by 6 psi oxygen, providing a single dose of 50 μg/Kg 20 min prior to challenge.
# An animal is anaesthetized using ketamine ([…]; i.p.) and xylazine (10 mg/Kg; i.p.) and 1% halothane during the surgical procedure. A tracheostomy is performed and a water-filled esophageal cannula is inserted prior to positioning the animal in a body plethysmograph. The tracheal cannula is attached to a fixed tracheal cannula in the plethysmograph. Cardiac function is monitored using electrocardiography. The animal is paralyzed using pancuronium bromide (0.8 mg/Kg; i.m.) and ventilated with 3 ml tidal breaths using a Harvard small animal ventilator, at a frequency of 60 breaths per minute. Pulmonary resistance and dynamic lung compliance data are obtained from volume, flow and transpulmonary pressure signals using multipoint analysis.
# Pulmonary function is continually monitored throughout the experiment and measurements of lung resistance and lung compliance are made at various time-points (e.g., 0, 1, 2, 3, 4, 5, 10, 20 and 30 min) following antigen challenge. Data is collected on a computer-linked physiological measurement system using DIREC Physiological recording software and analyzed using ANADAT software designed for lung mechanics measurements. This software was obtained from RHT-InfoDat Inc., Montreal, Quebec, Canada.
# Once baseline resistance and compliance measurements are obtained, the animal is challenged with 6 breaths of saline. After 10 minutes, during which time no alterations in lung function should occur, the animal is challenged with 6 breaths of 2 or 3% ovalbumin in saline (as the antigen stimulus). Saline and antigen are delivered in each breath using a Hudson nebulizer.
# [7] = system: NF-κB; assay: NF-κB gel shift binding assay in TPA-stimulated RBL-2H3 cells; format: cell-based; conditions: Rattus norvegicus, compound 1 μM, 2 hours preincubation, read-out: Percent Inhibition of Response to TPA (0.1 μM)
# [8] = RBL-2H3, read-out: Percentage Inhibition (mean) RBL-2H3 Cells
# [9] = RBL-2H3, 25 μM compound, antigen-induced hexosaminidase release, read-out: Percentage Inhibition (mean) RBL-2H3 Cells
smiles,measurement,setting,value
C[C@]12CCC(=O)C=C1[C@@H](O)[C@H](O)C1C2CC[C@]2(C)C(=O)CCC12 (stereo partly drawn) [Compound 7],inhibition at 80 µM,[1],12.3%
same,inhibition at 25 µM,[2]; [8],21.7%
same,inhibition at 30 µM,[3],54%
CC1(C)O[C@@H]2C3C(CC[C@@]4(C)C3CC[C@@H]4O[Si](C)(C)C(C)(C)C)[C@@]3(C)CC[C@H](O)[C@@H](O)C3[C@H]2O1 (stereo partly drawn) [Compound 236],inhibition at 80 µM,[1],100%
same,inhibition at 25 µM,[2]; [8],31%
same,percentage contraction compared to 100 μM methacholine,[4]; OA 0.01 μg/ml,5.6%
same,percentage contraction compared to 100 μM methacholine,[4]; OA 0.03 μg/ml,5.6%
same,percentage contraction compared to 100 μM methacholine,[4]; OA 10.0 μg/ml,39%
CC1(C)O[C@@H]2C3=CC(=O)CC[C@]3(C)C3CC[C@]4(C)C(=O)CCC4C3[C@H]2O1 (stereo partly drawn) [Compound 8],inhibition at 80 µM,"[1]; 80 μM compound, 5 min preincubation, PAF-stimulated rabbit platelets (title: 0.1 nM PAF)",11.6%
CC[C@H]1CCC2C3C(CC[C@@]21C)[C@@]1(C)CC[C@@H](O)CC1[C@@H](O)[C@@H]3O (stereo partly drawn) [Compound 339],Percentage Inhibition (mean) RBL-2H3 Cells,"[2]; 25 μM compound, antigen-induced hexosaminidase release, 25 µM",76%
same,inhibition at 25 µM,[2]; [9],79%
same,Percentage Inhibition (mean) MC/9 cells,"[5]; 25 μM compound, 25 µM",55%
same,inhibition at 25 µM,[5],67%
same,inhibition at 30 µM,[3],40.6%
same,Lung Compliance,[6]; 1 min after challenge,0.172 ± 0.027 ml/cm H2O
same,Lung Resistance,[6]; 1 min after challenge,0.326 ± 0.041 cm H2O/ml/sec
same,Lung Compliance,[6]; 2 min after challenge,0.088 ± 0.018 ml/cm H2O
same,Lung Resistance,[6]; 2 min after challenge,0.522 ± 0.187 cm H2O/ml/sec
same,Lung Compliance,[6]; 3 min after challenge,0.060 ± 0.017 ml/cm H2O
same,Lung Resistance,[6]; 3 min after challenge,1.102 ± 0.047 cm H2O/ml/sec
same,Lung Compliance,[6]; 4 min after challenge,0.050 ± 0.013 ml/cm H2O
same,Lung Resistance,[6]; 4 min after challenge,0.996 ± 0.380 cm H2O/ml/sec
same,Lung Compliance,[6]; 5 min after challenge,0.051 ± 0.011 ml/cm H2O
same,Lung Resistance,[6]; 5 min after challenge,1.014 ± 0.413 cm H2O/ml/sec
same,Lung Compliance,[6]; 10 min after challenge,0.084 ± 0.012 ml/cm H2O
same,Lung Resistance,[6]; 10 min after challenge,0.440 ± 0.099 cm H2O/ml/sec
same,Lung Compliance,[6]; 20 min after challenge,0.123 ± 0.015 ml/cm H2O
same,Lung Resistance,[6]; 20 min after challenge,0.296 ± 0.031 cm H2O/ml/sec
same,Lung Compliance,[6]; 30 min after challenge,0.150 ± 0.012 ml/cm H2O
same,Lung Resistance,[6]; 30 min after challenge,0.291 ± 0.037 cm H2O/ml/sec
same,Lung Compliance,[6]; Baseline,0.463 ± 0.026 ml/cm H2O
same,Lung Resistance,[6]; Baseline,0.249 ± 0.017 cm H2O/ml/sec
same,Lung Compliance,[6]; OA/10 s,0.442 ± 0.025 ml/cm H2O
same,Lung Resistance,[6]; OA/10 s,0.239 ± 0.013 cm H2O/ml/sec
same,inhibition at 1 µM,[7],65%
C/C=C1/CCC2C3C(CC[C@]12C)[C@@]1(C)CC[C@H](O)CC1[C@@H](O)[C@@H]3O (stereo partly drawn) [Compound 333],inhibition at 25 µM,[2]; [9],69%
same,inhibition at 25 µM,[5],71%
same,inhibition at 30 µM,[3],63%
same,inhibition at 1 µM,[7],34%
